Test results published in patent US11739101B2, “Bifunctional degraders of hematopoietic progenitor kinase and therapeutic uses thereof” (Nurix Therapeutics, Inc., priority 2020, dated 2023).

Molecular target: T1, HPK1 (Homo sapiens, UniProt Q92918)
T1 construct: A HiBiT tag was introduced by CRISPR on the N terminus of HPK1 in Jurkat cells; host or cells: Jurkat (ATCC TIB-152), monoclonal CRISPR HiBiT knock-in line
Test: HPK1 Cellular HiBiT Degradation Assay
Type: cell-based
Details: HiBiT-tagged HPK1 Jurkat cells, 24 hours, 10 uM to 0.1 nM; Dmax = 100 minus lowest % HPK1 remaining vs DMSO vehicle
How it was run: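 Jurkat cells with CRISPR N-terminal HiBiT-tagged HPK1 were exposed to an 11-point 3.16-fold dilution series, 10 uM to 0.1 nM final, for 24 hours at 37° C./5% CO2. HPK1 was read by HiBiT lytic luminescence against DMSO as 100% and parental cells as background. Dmax is 100 minus the lowest % remaining from a four-parameter fit, with a parallel CellTiter-Glo viability check.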

T1 sequence (Q92918 whole entry): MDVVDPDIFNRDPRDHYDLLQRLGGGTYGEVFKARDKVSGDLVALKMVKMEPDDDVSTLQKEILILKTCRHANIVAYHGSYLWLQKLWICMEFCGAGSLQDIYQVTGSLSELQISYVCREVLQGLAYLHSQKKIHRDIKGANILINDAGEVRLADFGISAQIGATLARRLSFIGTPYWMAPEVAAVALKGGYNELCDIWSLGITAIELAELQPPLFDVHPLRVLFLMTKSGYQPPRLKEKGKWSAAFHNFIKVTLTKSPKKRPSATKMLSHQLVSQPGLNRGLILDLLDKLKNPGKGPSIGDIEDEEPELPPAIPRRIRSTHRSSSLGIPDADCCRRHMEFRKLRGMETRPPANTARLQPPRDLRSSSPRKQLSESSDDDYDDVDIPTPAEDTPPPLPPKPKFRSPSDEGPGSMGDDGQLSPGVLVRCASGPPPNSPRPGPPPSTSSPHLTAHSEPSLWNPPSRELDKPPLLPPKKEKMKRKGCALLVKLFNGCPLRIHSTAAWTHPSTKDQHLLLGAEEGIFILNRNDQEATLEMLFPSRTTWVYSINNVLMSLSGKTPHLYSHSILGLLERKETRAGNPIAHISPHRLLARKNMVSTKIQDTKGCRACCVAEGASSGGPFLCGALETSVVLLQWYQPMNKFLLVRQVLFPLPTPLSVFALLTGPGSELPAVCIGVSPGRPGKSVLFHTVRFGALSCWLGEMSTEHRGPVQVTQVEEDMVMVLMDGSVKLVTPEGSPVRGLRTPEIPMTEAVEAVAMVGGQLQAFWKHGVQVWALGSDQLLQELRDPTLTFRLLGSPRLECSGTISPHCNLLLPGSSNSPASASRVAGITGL

With `Cc1cc(F)c(Nc2nc(-c3ccc4c(c3)N([C@H]3C[C@@H](N5CCCCC5)C3)C(=O)C43CCN(C(=O)OC4CCN(C(=O)C5CCN(c6ccc7c(c6)C(=O)N(C6CCC(=O)NC6=O)C7=O)CC5)CC4)CC3)cc3ncn(C(C)C)c23)cc1C(=O)NC(C)C` (some centres unmarked) [Example 55, 1-(1-{2-[2,6-dioxopiperidin-3-yl]-1,3-dioxoisoindol-5-yl}piperidine-4-carbonyl)piperidin-4-yl 6-(4-{[2-fluoro-5-(isopropylcarbamoyl)-4-methylphenyl]amino}-3-isopropylimidazo[4,5-c]pyridin-6-yl)-2-oxo-1-[(1s,3s)-3-(piperidin-1-yl)cyclobutyl]spiro[indole-3,4′-piperidine]-1′-carboxylate] the Dmax was greater than 65%.

`Cc1cc(F)c(Nc2nc(-c3ccc4c(c3)N([C@H]3C[C@@H](N5CCCCC5)C3)C(=O)C43CCN(C(=O)c4ccn(C5CCN(Cc6cccc7c6C(=O)N(C6CCC(=O)NC6=O)C7=O)CC5)n4)CC3)cc3ncn(C(C)C)c23)cc1C(=O)NC(C)C` (some centres unmarked) [Example 65, 5-{[6-(1′-{1-[1-({2-[2,6-dioxopiperidin-3-yl]-1,3-dioxo-2,3-dihydro-1H-isoindol-4-yl}methyl)piperidin-4-yl]-1H-pyrazole-3-carbonyl}-2-oxo-1-[(1s,3s)-3-(piperidin-1-yl)cyclobutyl]-1,2-dihydrospiro[indole-3,4′-piperidin]-6-yl)-3-(propan-2-yl)-3H-imidazo[4,5-c]pyridin-4-yl]amino}-4-fluoro-2-methyl-N-(propan-2-yl)benzamide] gave a Dmax of 45 to 65%.

In the case of `Cc1cc(F)c(Nc2nc(-c3ccc4c(c3)N([C@H]3C[C@@H](N5CCCCC5)C3)C(=O)C43CCN(C(=O)CCC4CCCN(CC(=O)NC(C(=O)N5C[C@H](O)C[C@H]5C(=O)N[C@@H](C)c5ccc(-c6scnc6C)cc5)C(C)(C)C)C4)CC3)cc3ncn(C(C)C)c23)cc1C(=O)NC(C)C` (stereo partly drawn) [Example 48, (2S,4R)-1-((2S)-2-(2-(3-(3-(6-(4-((2-fluoro-5-(isopropylcarbamoyl)-4-methylphenyl)amino)-3-isopropyl-3H-imidazo[4,5-c]pyridin-6-yl)-2-oxo-1-((1s,3s)-3-(piperidin-1-yl)cyclobutyl)spiro[indoline-3,4′-piperidin]-1′-yl)-3-oxopropyl)piperidin-1-yl)acetamido)-3,3-dimethylbutanoyl)-4-hydroxy-N—((S)-1-(4-(4-methylthiazol-5-yl)phenyl)ethyl)pyrrolidine-2-carboxamide], the Dmax is reported as 45 to 65%.

In the case of `Cc1cc(F)c(Nc2nc(-c3ccc4c(c3)N(C3CC(N5CCCCC5)C3)C(=O)C43CCN(C(=O)C4CCN(C(=O)C5CCN(c6ccc7c(c6)C(=O)N(C6CCC(=O)NC6=O)C7=O)CC5)CC4)CC3)cc3ncn(C(C)C)c23)cc1C(=O)NC(C)C` (centres unmarked) [Example 41, 5-[(6-{1′-[1-(1-{2-[2,6-dioxopiperidin-3-yl]-1,3-dioxo-2,3-dihydro-1H-isoindol-5-yl}piperidine-4-carbonyl)piperidine-4-carbonyl]-2-oxo-1-[(1s,3s)-3-(piperidin-1-yl)cyclobutyl]-1,2-dihydrospiro[indole-3,4′-piperidin]-6-yl}-3-(propan-2-yl)-3H-imidazo[4,5-c]pyridin-4-yl)amino]-4-fluoro-2-methyl-N-(propan-2-yl)benzamide], the “Cellular HPK1 HiBiT: Dmax (%)” value is reported as “B (45%≤B≤65%)”.

Compound `Cc1cc(F)c(Nc2nc(-c3ccc4c(c3)N([C@H]3C[C@@H](N5CCCCC5)C3)C(=O)C43CCN(C(=O)CCCCCCCCCOc4cc(-c5scnc5C)ccc4CNC(=O)[C@@H]4C[C@@H](O)CN4C(=O)[C@@H](NC(=O)C4(F)CC4)C(C)(C)C)CC3)cc3ncn(C(C)C)c23)cc1C(=O)NC(C)C` [Example 6, (2S,4R)—N-(2-((10-(6-(4-((2-fluoro-5-(isopropylcarbamoyl)-4-methylphenyl)amino)-3-isopropyl-3H-imidazo[4,5-c]pyridin-6-yl)-2-oxo-1-((1s,3s)-3-(piperidin-1-yl)cyclobutyl)spiro[indoline-3,4′-piperidin]-1′-yl)-10-oxodecyl)oxy)-4-(4-methylthiazol-5-yl)benzyl)-1-((S)-2-(1-fluorocyclopropane-1-carboxamido)-3,3-dimethylbutanoyl)-4-hydroxypyrrolidine-2-carboxamide] has a Dmax of less than 45%.
